Experimental data: patent US20250367330A1, “OPTICAL CLEARING ENABLED BY THE KRAMERS-KRONIG RELATION” (The Board of Trustees of the Leland Stanford Junior …, priority 2021, published 2025)
Values belong to the compound of their own block, whether it stands above or below them.

Key:
[1] = Ellipsometry measurement of solution refractive index and molar n′ change β; format: physicochemical
Procedure: A Horiba UVISEL ellipsometer was used to measure the real and imaginary parts of the refractive index of solutions at different concentrations of specific dye molecules. For solution measurement, 5 mL of solution was added to a shallow glass petri-dish (35×10 mm, Corning Falcon). The solution covers the entire bottom of the petri-dish creating a flat, reflective air-liquid interface. The reflected light was measured at an angle of 69.85° and the refractive index of the solution was calculated using a single interface semi-infinite reflection model. For all the measurements, 0.2 s integration time was used for each wavelength.
Measurements of the Molar n′ Change, β
The molar n′ change, β, is defined and measured according to the following quantitative relationship between the n′ and c (i.e., the concentration) of an aqueous solution containing dissolved clearing agents:
[formula] • where nw′ is the real RI of pure water, c is the molar concentration (M) of the clearing agent, and β is its molar n′ change. Note that n′, nw′, and β all have wavelength dependence. According to eq. (6), by measuring the n′(λ) of the solutions with ellipsometry, one can obtain β(λ) by fitting n′(λ) with c to a linear relationship.

[2] = when used as a clearing agent, reported; cited from earlier work
[3] = Screening of absorbing molecules for K-Klear by α, β and β/α spectra; format: physicochemical
From the text: (FIG. 3A) The relation between average molar absorption a and average molar n′ change β in the wavelength range between 500 to 700 nm for different molecules. (FIG. 3B) The ratio between the molar n′ change and molar absorption (β/α) for different absorbing molecules. The “white window” indicates a potential clearing spectrum with sufficient Δn′ and minimal absorption. (FIGS. 3C-3D) Imaginary part n″ (FIG. 3C) and real part n′ (FIG. 3D) of the RI of Dye-4 solutions at different concentrations measured from ellipsometry.
In practice, the agent should display a large absorption coefficient in order to realize the large, required changes in n′. […] At the same time, the agent should have minimal absorption at the wavelength for imaging, thus calling for a single narrow absorption peak without any additional absorption at longer wavelengths. In addition to these purely optical requirements, the agents also need to display a high solubility and diffusivity in water as well as excellent biocompatibility to facilitate in vivo application.

[4] = UV-Vis absorption of dye solutions in water (molar absorption α, extinction coefficient); format: physicochemical; details: for absorption at wavelengths above 600 nm: aqueous solutions, b66: 1 mM to 1.0 M
From the text: A Thermo Fisher Scientific Evolution 350 UV-Vis spectrophotometer was used to measure the transmission and absorption spectra of dye solutions, silica phantoms, and ex-vivo chicken breast tissues. For all the measurements, 0.2 s acquisition time was used for each wavelength.
For transmission measurements of dye solutions, 1 mm optical path quartz cuvettes (high precision, two polished sides, Orient Analytics) were used and the cells were washed with aqua regia (mixture of 36.5-38.0 w/w % HCl and 68.0-70.0 w/w % HNO3 with a volume ratio of 3:1), fully rinsed with water and dried before use. A reference spectrum was acquired with water alone, thus correcting any loss of light due to intrinsic water absorption and reflection at the air-quartz interfaces.

[5] = Imaging of 1951 USAF resolution target through 1-mm scattering phantoms; details: optimum K-Klear conditions
Procedure: To this end, the resolvable spatial frequencies of a 1951 US Air Force (USAF) resolution target were quantified when imaging it through 1-mm scattering phantoms with different Dye-4 concentrations (FIGS. 5A-5B; FIGS. 14A-15E; see Example 7 for preparation of the phantom). The scattering phantom is placed between the objective lens and the USAF target, which is back illuminated with a white lamp (FIG. 16).
The hydrogel-silica scatter phantom in FIGS. 5A-5M was prepared by mixing the silica nanoparticle suspension (1 μm, 10 mg mL^−1) with low melting temperature agarose and Dye-4 of different amounts. The final concentration of agarose was 6 mg mL^−1. […] The mixture was then heated in an oven at 70° C. for at least 10 min to facilitate the dissolution of agarose. A 400-μL suspension was pipetted and injected into the well of a 1-mm silicone isolator (Grace bio-labs, Bend, Oregon, USA) mounted on a coverslip (24×40×0.15 mm, Fisher Scientific). The top of the solution was then sealed by another coverslip (22×22×0.15 mm, Thermo Scientific, Waltham, Massachusetts, USA) and the phantom was left at room temperature for slow solidification. […]

chicken breast tissue [6] = assay: Ex vivo K-Klear of chicken breast tissue, transmittance and attenuation coefficient; details: immersion in 0.62 M solution, beyond 600 nm
From the text: To gradually increase the n′ of the aqueous components in chicken breast, the tissue slices were sequentially immersed in solutions containing an increasing concentration of Dye-4 (FIG. 6A; see Example 7).
To verify this point, the Dye-4 concentration was varied in the last immersion step and measure T before and after dye immersion (FIGS. 6C and 18).
For transmission measurements of chicken breast tissue, the tissue sample was first mounted on a microscope slide (precleaned, 12-550-15, Fisher Scientific), which was placed in the light path of the UV-Vis spectrometer to ensure that the entire incident beam is blocked by the tissue. For time-dependent transmission measurement, the tissue was cut to fit into a 1 cm optical path plastic cuvette (acrylic, 14-955-126, Fisher Scientific) while having sufficient area to completely block the incident light. 3 mL of Dye-4 solution was then slowly added to fully immerse the chicken breast tissue, before the cuvette was sealed by parafilm (Bemis Company, Inc., Neenah, Wisconsin, USA) to minimize water evaporation. […]
The thickness of the tissue was measured by sandwiching the tissue between two coverslips (22×22×0.15 mm, Thermal Scientific) using a digital caliper (Mitutoyo). The transmission spectra of the tissue were measured by attaching the chicken breast tissue on a microscope slide (precleaned, Fisher Scientific). […]

chicken breast tissue [7] = assay: Temporal evolution of transmittance during immersion, diffusion in chicken breast tissue
From the text: (FIG. 19A) Temporal evolution of transmittance T at different wavelengths of a chicken breast tissue immersed in a 0.62 M solution of Dye-4. (FIG. 19B) Temporal evolution of normalized T at different wavelengths. T is normalized between 0 and 1 against minimum and maximum T for each wavelength. (FIG. 19C) Temporal evolution of normalized T averaged over measurements at all wavelengths in FIG. 19B, enabling the extraction of the diffusion constant by fitting the normalized T to
This tissue sample has a thickness of d=1.82 mm; therefore, the diffusion coefficient D of Dye-4 therein can be calculated as
For this reason, estimates of the diffusion rate of Dye-4 molecules can be made in chicken breast by tracking the temporal evolution of T during dye immersion (FIGS. 6F and 19A-19C). […] Using a dilute solution to achieve the same Δn′ and clearing effect benefits from a low viscosity of the clearing agent, thus promoting its diffusion kinetics.
For transmission measurements of chicken breast tissue, the tissue sample was first mounted on a microscope slide (precleaned, 12-550-15, Fisher Scientific), which was placed in the light path of the UV-Vis spectrometer to ensure that the entire incident beam is blocked by the tissue. For time-dependent transmission measurement, the tissue was cut to fit into a 1 cm optical path plastic cuvette (acrylic, 14-955-126, Fisher Scientific) while having sufficient area to completely block the incident light. 3 mL of Dye-4 solution was then slowly added to fully immerse the chicken breast tissue, before the cuvette was sealed by parafilm (Bemis Company, Inc., Neenah, Wisconsin, USA) to minimize water evaporation. The temperature of the cuvette was controlled between 25 and 30° C. during measurements.
The thickness of the tissue was measured by sandwiching the tissue between two coverslips (22×22×0.15 mm, Thermal Scientific) using a digital caliper (Mitutoyo). The transmission spectra of the tissue were measured by attaching the chicken breast tissue on a microscope slide (precleaned, Fisher Scientific).

mouse scalp = assay: In vivo optical clearing of mouse scalp by topical gel, laser speckle imaging of cerebral vessels; parameters: species or system mice; details: gel containing 0.62 M dye, 785 nm
From the text: Given the successful clearing of scattering phantoms and chicken breasts using this approach, the possibility to achieve clearing in live animals was next explored. Procedures were developed to circumvent the destructive procedures or the use of toxic chemicals commonly used in ex vivo tissue clearing methods. […] It was hypothesized that owing to the small molecular weight and sufficiently large diffusion coefficient of Dye-4 in tissue, it can be delivered topically to optically clear the skin, thus exposing underlying structures that are otherwise obscured by the skin (FIG. 7A). […] The opacity of the scalp always requires its removal for fluorescence imaging of neuron activity or laser speckle imaging of cerebral hemodynamics in the mouse brain. […]
(§1) Before each imaging experiment, the mice were weighed and anesthetized via intraperitoneal (i.p.) injection of a mixture of 16 mg/kg ketamine (Dechra Veterinary Products) and 0.2 mg/kg dexdomitor (Dexmedesed; Dechra Veterinary Products) by insulin syringes with a 30 G needle gauge. […] The hair over the mouse head was removed for the in-vivo fluorescence imaging at the mice head. The hair over the mouse hindlimbs was removed for in-vivo reflectance and fluorescence imaging at the hind limbs. […]

mouse hindlimb skin = assay: In vivo optical clearing of mouse hindlimb skin by topical gel, SHG sarcomere imaging; parameters: species or system mice; details: gel containing 0.62 M dye topically
From the text: Sarcomeres, basic contractile units of skeletal and cardiac muscles, were chosen as the targets for imaging owing to their central roles in muscle functions and implications in neuromuscular diseases (e.g., spinal muscular atrophy). Existing in vivo sarcomere imaging methods require the invasive implantation of microendoscopes inside the muscle tissue for imaging the second-harmonic generation (SHG) signals from myosin rods in the sarcomere. It was hypothesized that the need for an invasively implanted microendoscope can be alleviated by applying the K-Klear method to reduce the scattering in the skin. […] This average periodicity value between SHG-generating myosin rods agrees with the reported sarcomere lengths measured via an implanted microendoscope, thus confirming the ability of K-Klear to resolve microscopic features through cleared tissue. […]
as §1

[8] = EFSA conclusion; cited from earlier work
[9] = wavelength 600 nm, aqueous solution

Molar n′ change β ([1]; wavelength 589.6 nm): 0.0084 M⁻¹
SMILES: CC(O)CO (stereo not shown) [Propylene glycol, reference compound]
diffusion coefficient [2]: 0.021×10^−6 cm^2 s^−1

potential for clearing from β/α spectrum ([3]; longer wavelengths / NIR spectrum): greatest potential
SMILES: CC1(C)C(/C=C/C2=C(Cl)C(=C/C=C3\N(CCCCS(=O)(=O)[O-])c4ccccc4C3(C)C)/CCC2)=[N+](CCCCS(=O)(=O)[O-])c2ccccc21.[Na+] [Dye-21, Sodium 4-[2-[2-[2-chloro-3-[2-[3,3-dimethyl-1-(4-sulfonato-butyl)indol-1-ium-2-yl]vinyl]cyclohex-2-en-1-ylidene]ethylidene]-3,3-dimethyl-indolin-1-yl]butane-1-sulfonate]

Molar n′ change β ([1]; wavelength 589.6 nm): 0.0462 M⁻¹
SMILES: OC[C@H]1O[C@@](CO)(O[C@H]2O[C@H](CO)[C@@H](O)[C@H](O)[C@H]2O)[C@@H](O)[C@@H]1O [Sucrose, reference compound]
required immersion time to achieve the same n′ increase (chicken breast tissue [7]; chicken breast): 24 h

Second part, the compound before the results:

SMILES: O=C([O-])c1nn(-c2ccc(S(=O)(=O)[O-])cc2)c(O)c1/N=N/c1ccc(S(=O)(=O)[O-])cc1.[Na+].[Na+].[Na+] [Dye-4, Trisodium 5-hydroxy-1-(4-sulfonato-phenyl)-4-[(E)-(4-sulfonato-phenyl)diazenyl]-1H-pyrazole-3-carboxylate]
β higher than that of molecules commonly used to raise the n′ of water [1]: 2-3 orders of magnitude | efficiency in raising the n′ of water relative to glycerol on a per molar basis ([1]; at 600 nm): 11 × | n′ of solution reachable ([1]; at a soluble concentration, ellipsometry): up to 1.49 | Molar n′ change β ([1]; wavelength 500 nm, aqueous solution): 0.198 ± 0.005 M⁻¹ | Molar n′ change β [1, 9]: 0.143 ± 0.004 M⁻¹ | Molar n′ change β ([1]; wavelength 700 nm, aqueous solution): 0.128 ± 0.004 M⁻¹ | Molar n′ change β ([1]; wavelength 800 nm, aqueous solution): 0.130 ± 0.008 M⁻¹ | absorption at wavelengths above 600 nm [4]: minimally absorbing | absorption at wavelengths above 600 nm ([4]; listed as tartrazine): do not absorb | peak absorption wavelength ([4]; dissolved in water): 428 nm | β among candidates while maintaining low α ([3]; visible spectrum of 500-700 nm, 21 candidates): highest | resolvable spatial frequency through 1-mm scattering phantom [5]: up to 228.1 lp mm^−1 | normalized attenuation coefficient relative to original tissue (chicken breast tissue [6]): approximately 40% | time constant τ of normalized transmittance (chicken breast tissue [7]; 0.62 M solution, tissue thickness 1.82 mm): 85.0 ± 1.2 min | time until transmission changes saturate (chicken breast tissue [7]; 2-mm-thick chicken breast, 0.62 M solution): 2 to 3 h | diffusion coefficient (chicken breast tissue [7]; in chicken breast tissue, clearing solution): 0.66×10^−6 cm^2 s^−1 | laser speckle image through intact scalp after topical application (mouse scalp): clearly reveals vascular structures representative of cerebral vessels | characteristic periodicity (sarcomere length) identified through the skin window (mouse hindlimb skin): 2.60±0.28 μm | depth at which sarcomere structures are identified through the skin (mouse hindlimb skin; 1040 nm): > 200 μm | dose with no adverse effects or systemic toxicity [8]: up to 2 g per kg of body weight

SMILES: [Cl-].[Na+] [Sodium chloride, reference compound]
Molar n′ change β ([1]; wavelength 589 nm): 0.00094 M⁻¹

SMILES: Cc1cc(=O)n(-c2ccccc2)n1C [Antipyrine, reference compound]
Molar n′ change β [1, 9]: 0.037 ± 0.003 M⁻¹

SMILES: OCC(O)CO [Glycerol, reference compound]
concentration needed to raise the baseline n′ of water to match that of lipids [1]: 11.6 M | Molar n′ change β ([1]; in the visible spectrum): 0.0129 M⁻¹ | Molar n′ change β ([1]; wavelength 589.6 nm): 0.0129 M⁻¹ | molar absorption coefficient α [4]: 0.012 M⁻¹
